Experimental data: patent publication US8609836B2, “4-aryl-2-anilino-pyrimidines” (Janssen Pharmaceutica NV, priority 2008, dated 2013)

How the values were obtained:
Type in all cases: biochemical
CDK1/CyclinB (h) = CDK1/CyclinB (h) (Homo sapiens, UniProt P06493); experiment: CDK1/CyclinB human kinase inhibition, Invitrogen's FRET assay (Z'lyte); details: read-out: CDK1 pIC50 (converted)
Method in brief: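 Z'lyte FRET assay: human CDK1/CyclinB (0.2 μg/ml) with 2 μM Ser/Thr peptide 12 and 10 μM ATP in 50 mM Hepes pH 7.5, MgCl2, EGTA, Brij-35, 60 min at room temperature. Protease development 60 min, then emission ratio 460/538 nm read with excitation at 390 nm.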

PLK4 (h) = PLK4 (h) (Homo sapiens, UniProt O00444); experiment: PLK-4 human kinase inhibition, scintillation proximity assay (SPA); details: read-out: PLK4 pIC50 (converted)
Sequence of PLK4 (h) (O00444 whole entry): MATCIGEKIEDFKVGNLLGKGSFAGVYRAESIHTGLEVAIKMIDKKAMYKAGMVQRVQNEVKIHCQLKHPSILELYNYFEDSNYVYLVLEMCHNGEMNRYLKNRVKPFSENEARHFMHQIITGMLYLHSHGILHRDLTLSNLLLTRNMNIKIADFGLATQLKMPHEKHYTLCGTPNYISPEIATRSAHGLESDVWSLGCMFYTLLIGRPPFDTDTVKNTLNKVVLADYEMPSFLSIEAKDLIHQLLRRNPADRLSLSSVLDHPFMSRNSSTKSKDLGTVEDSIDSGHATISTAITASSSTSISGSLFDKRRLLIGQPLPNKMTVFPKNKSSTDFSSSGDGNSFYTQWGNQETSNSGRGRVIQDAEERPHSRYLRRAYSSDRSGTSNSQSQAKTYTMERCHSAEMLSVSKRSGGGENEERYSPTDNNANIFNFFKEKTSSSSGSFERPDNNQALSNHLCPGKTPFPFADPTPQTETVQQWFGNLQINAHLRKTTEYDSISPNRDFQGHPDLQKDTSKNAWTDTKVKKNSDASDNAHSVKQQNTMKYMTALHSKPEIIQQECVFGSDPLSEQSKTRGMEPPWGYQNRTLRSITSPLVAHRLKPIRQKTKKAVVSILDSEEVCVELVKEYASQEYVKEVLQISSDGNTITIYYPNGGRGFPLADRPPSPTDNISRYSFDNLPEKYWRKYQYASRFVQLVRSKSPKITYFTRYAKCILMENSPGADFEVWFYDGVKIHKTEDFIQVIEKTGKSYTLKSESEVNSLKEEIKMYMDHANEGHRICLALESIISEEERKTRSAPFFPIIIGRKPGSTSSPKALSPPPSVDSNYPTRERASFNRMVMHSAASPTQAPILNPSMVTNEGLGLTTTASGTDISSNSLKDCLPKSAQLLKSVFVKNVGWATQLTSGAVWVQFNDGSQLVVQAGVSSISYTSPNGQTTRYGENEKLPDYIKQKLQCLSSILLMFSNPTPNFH

AuroraB (h) = AuroraB (h) (Homo sapiens, UniProt Q96GD4); experiment: Aurora-B human kinase inhibition, SPA; details: read-out: AuroraB pIC50 (converted)
Sequence of AuroraB (h) (Q96GD4 whole entry): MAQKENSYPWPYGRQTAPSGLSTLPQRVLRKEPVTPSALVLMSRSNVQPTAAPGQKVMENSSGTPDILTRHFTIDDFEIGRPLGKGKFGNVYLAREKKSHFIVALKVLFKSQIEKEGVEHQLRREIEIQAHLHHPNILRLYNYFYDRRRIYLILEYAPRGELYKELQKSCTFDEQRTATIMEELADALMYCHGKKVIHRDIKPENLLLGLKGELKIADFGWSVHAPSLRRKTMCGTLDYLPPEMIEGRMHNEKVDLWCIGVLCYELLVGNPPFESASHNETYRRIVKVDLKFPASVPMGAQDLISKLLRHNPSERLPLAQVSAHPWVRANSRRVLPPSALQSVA
Method in brief: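 SPA with biotinylated peptide (3 μM) in 60 mM Hepes pH 7.5, Mg/Mn 3 mM each, 0.5 μM ATP plus [γ-33P]ATP, AuroraB at 0.5 μg/ml. The reaction runs 60 min at room temperature and is stopped with EDTA and streptavidin PVT beads. 33P-substrate is read by scintillation imaging.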

Sequence of CDK1/CyclinB (h) (P06493 whole entry): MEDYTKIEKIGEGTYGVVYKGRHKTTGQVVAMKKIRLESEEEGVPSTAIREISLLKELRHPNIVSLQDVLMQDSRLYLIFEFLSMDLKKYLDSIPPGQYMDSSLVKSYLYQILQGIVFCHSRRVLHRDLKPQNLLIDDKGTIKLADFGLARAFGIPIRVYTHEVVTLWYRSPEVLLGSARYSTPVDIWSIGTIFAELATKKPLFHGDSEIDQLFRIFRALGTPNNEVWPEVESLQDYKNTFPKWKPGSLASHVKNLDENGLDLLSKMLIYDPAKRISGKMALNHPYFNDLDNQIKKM
Sequence of CDK1/CyclinB (h) (P14635 whole entry partner): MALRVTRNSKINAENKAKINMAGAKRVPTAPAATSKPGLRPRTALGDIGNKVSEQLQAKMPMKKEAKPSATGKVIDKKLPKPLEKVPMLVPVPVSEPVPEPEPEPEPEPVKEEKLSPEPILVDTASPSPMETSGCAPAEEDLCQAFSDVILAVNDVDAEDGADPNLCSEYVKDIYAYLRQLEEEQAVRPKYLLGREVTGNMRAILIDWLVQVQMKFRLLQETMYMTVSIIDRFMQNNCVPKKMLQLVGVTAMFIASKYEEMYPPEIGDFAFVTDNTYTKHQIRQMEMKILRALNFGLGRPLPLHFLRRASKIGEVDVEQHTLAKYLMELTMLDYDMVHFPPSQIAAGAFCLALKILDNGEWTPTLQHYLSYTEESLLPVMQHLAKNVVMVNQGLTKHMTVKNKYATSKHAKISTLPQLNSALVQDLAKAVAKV

Compound | IC50 (CDK1/CyclinB (h)) | IC50 (PLK4 (h)) | IC50 (AuroraB (h))
O=C1NCc2cccc(c2)-c2ccnc(n2)Nc2cccc(c2)CN[C@H]1CO [Compound 187] | 0.646 µM | 1.07 µM | > 10 µM
O=C1NCc2cccc(c2)-c2ccnc(n2)Nc2cc(ccc2Cl)CN[C@H]1CO [Compound 188] | 9.12 µM | 2.09 µM | > 10 µM
O=C1NCc2cccc(c2)-c2ccnc(n2)Nc2cc(ccc2Cl)CN[C@H]1Cc1ccccc1 [Compound 189] | 5.62 µM | > 10 µM | > 10 µM
C[C@@H]1NCc2ccc(cc2)Nc2nccc(n2)-c2cccc(c2)CNC1=O [Compound 190] | 6.46 µM | > 10 µM | > 10 µM
O=C1NCc2cccc(c2)-c2ccnc(n2)Nc2ccc(cc2)CN[C@H]1Cc1ccccc1 [Compound 192] | > 10 µM | > 10 µM | > 10 µM
O=C1CN2CCN(CC2)Cc2cc(ccc2N2CCOCC2)Nc2nccc(n2)-c2ccc(cc2)CN1 [Compound 194] | > 10 µM | 1.12 µM | > 10 µM

The remaining lines, values ahead:

IC50 (CDK1/CyclinB (h)) | IC50 (PLK4 (h)) | IC50 (AuroraB (h)) | Compound
> 10 µM | > 10 µM | > 10 µM | O=C1CN2CCN(CC2)Cc2ccc(cc2)Nc2nccc(n2)-c2cccc(c2)CN1 [Compound 193]
> 10 µM | > 10 µM | > 10 µM | O=C1CN2CCN(CC2)Cc2ccc(Cl)c(c2)Nc2nccc(n2)-c2cccc(c2)CN1 [Compound 195]
> 10 µM | > 10 µM | > 10 µM | O=C1CN2CCN(CC2)Cc2cccc(c2)Nc2nccc(n2)-c2cccc(c2)CN1 [Compound 196]
